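Interpolation was linear, between the two tested concentrations surrounding the appropriate level; five concentrations were tested over 48 hours in 96-well plates. Here, GI50 denotes the concentration required for 50% inhibition of growth. At the TGI there is no net growth.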
Key:
Test in all cases: NCI anticancer screen, dose series, 48 h
RXF 393 renal = test system: RXF 393 renal
SNB-19 CNS = test system: SNB-19 CNS
RPMI-8226 leukemia = test system: RPMI-8226 leukemia
MALME-3M melanoma = test system: MALME-3M melanoma
SNB-75 CNS = test system: SNB-75 CNS
K-562 leukemia = test system: K-562 leukemia
HCC-2998 colon = test system: HCC-2998 colon
OVCAR-8 ovarian = test system: OVCAR-8 ovarian
SF-295 CNS = test system: SF-295 CNS
KM12 colon = test system: KM12 colon
HOP-62 NSCLC = test system: HOP-62 NSCLC
OVCAR-4 ovarian = test system: OVCAR-4 ovarian
U251 CNS = test system: U251 CNS
786-0 renal = test system: 786-0 renal
SK-MEL-5 melanoma = test system: SK-MEL-5 melanoma
SN12C renal = test system: SN12C renal
CCRF-CEM leukemia = test system: CCRF-CEM leukemia
HCT-15 colon = test system: HCT-15 colon
NCI-H522 lung = test system: NCI-H522 lung
UO-31 renal = test system: UO-31 renal
CAKI-1 renal = test system: CAKI-1 renal
IGROV1 ovarian = test system: IGROV1 ovarian
NCI-H460 lung = test system: NCI-H460 lung
SK-OV-3 ovarian = test system: SK-OV-3 ovarian
HS 578T breast = test system: HS 578T breast
UACC-62 melanoma = test system: UACC-62 melanoma
A549 NSCLC = test system: A549 NSCLC
DU-145 prostate = test system: DU-145 prostate
HCT-116 colon = test system: HCT-116 colon
MCF7 breast = test system: MCF7 breast
SR leukemia = test system: SR leukemia
M14 melanoma = test system: M14 melanoma
LOX IMVI melanoma = test system: LOX IMVI melanoma
TK-10 renal = test system: TK-10 renal
SW-620 colon = test system: SW-620 colon
NCI-H226 lung = test system: NCI-H226 lung
BT-549 breast = test system: BT-549 breast
PC-3 prostate = test system: PC-3 prostate
T-47D breast = test system: T-47D breast
UACC-257 melanoma = test system: UACC-257 melanoma
ACHN renal = test system: ACHN renal
OVCAR-5 ovarian = test system: OVCAR-5 ovarian
A498 renal = test system: A498 renal
HT29 colon = test system: HT29 colon
SF-268 CNS = test system: SF-268 CNS
NCI/ADR-RES ovarian = test system: NCI/ADR-RES ovarian
OVCAR-3 ovarian = test system: OVCAR-3 ovarian
SK-MEL-2 melanoma = test system: SK-MEL-2 melanoma
MDA-MB-231 breast = test system: MDA-MB-231 breast
HOP-92 NSCLC = test system: HOP-92 NSCLC
MDA-MB-435 = test system: MDA-MB-435
MOLT-4 leukemia = test system: MOLT-4 leukemia
EKVX NSCLC = test system: EKVX NSCLC
NCI-H23 lung = test system: NCI-H23 lung
HL-60(TB) leukemia = test system: HL-60(TB) leukemia
SF-539 CNS = test system: SF-539 CNS
SK-MEL-28 melanoma = test system: SK-MEL-28 melanoma
COLO 205 colon = test system: COLO 205 colon

## CC(=O)N1N=C(c2ccc(Nc3nc(Nc4ccc(Cl)cc4)nc(Nc4ccc(Cl)cc4)n3)cc2)CC1c1ccc([N+](=O)[O-])cc1 (stereo unspecified)
RXF 393 renal
  GI50: 2.29 µM
  TGI: 9.2 µM
SNB-19 CNS
  GI50: 3.8 µM
  TGI: 38.7 µM
RPMI-8226 leukemia
  GI50: 3.61 µM
  TGI: 42.4 µM
MALME-3M melanoma
  GI50: 14.7 µM
  TGI: 71.7 µM
SNB-75 CNS
  GI50: 3.71 µM
  TGI: > 54.6 µM
K-562 leukemia
  GI50: 2.65 µM
  TGI: 28.7 µM
HCC-2998 colon
  GI50: 19.3 µM
  TGI: > 80.1 µM
OVCAR-8 ovarian
  GI50: 8.54 µM
  TGI: > 100 µM
SF-295 CNS
  GI50: 1.87 µM
  TGI: 13.6 µM
KM12 colon
  GI50: 5.72 µM
  TGI: > 62.4 µM
HOP-62 NSCLC
  GI50: 13.5 µM
  TGI: 47.4 µM
OVCAR-4 ovarian
  GI50: 3.85 µM
  TGI: > 100 µM
U251 CNS
  GI50: 7.42 µM
  TGI: > 100 µM
786-0 renal
  GI50: 3.8 µM
  TGI: 26.3 µM
SK-MEL-5 melanoma
  GI50: 3.22 µM
  TGI: 15.8 µM
SN12C renal
  GI50: 13.4 µM
  TGI: > 100 µM
CCRF-CEM leukemia
  GI50: 2.92 µM
  TGI: > 32.2 µM
HCT-15 colon
  GI50: 4.11 µM
  TGI: > 94.3 µM
NCI-H522 lung
  GI50: 6.39 µM
  TGI: > 100 µM
UO-31 renal
  GI50: 4.29 µM
  TGI: > 100 µM
CAKI-1 renal
  GI50: 6.1 µM
  TGI: 32.5 µM
IGROV1 ovarian
  GI50: 6.51 µM
  TGI: > 65.6 µM
NCI-H460 lung
  GI50: 2.75 µM
  TGI: 12.5 µM
SK-OV-3 ovarian
  GI50: 4.3 µM
  TGI: 34.2 µM
HS 578T breast
  GI50: 7.7 µM
  TGI: 97.7 µM
UACC-62 melanoma
  GI50: 11.9 µM
  TGI: 34.9 µM
A549 NSCLC
  GI50: 5.57 µM
  TGI: > 86.5 µM
DU-145 prostate
  GI50: 5.56 µM
  TGI: > 54.9 µM
HCT-116 colon
  GI50: 3.24 µM
  TGI: 34.8 µM
MCF7 breast
  GI50: 1.71 µM
  TGI: 10.4 µM
SR leukemia
  GI50: 2.66 µM
  TGI: 20.5 µM
M14 melanoma
  GI50: 6.8 µM
  TGI: 43.4 µM
LOX IMVI melanoma
  GI50: 5.66 µM
  TGI: > 47.1 µM
TK-10 renal
  GI50: 12.2 µM
  TGI: > 75.3 µM
SW-620 colon
  GI50: 8.77 µM
  TGI: > 100 µM
NCI-H226 lung
  GI50: 12.9 µM
  TGI: > 82.7 µM
BT-549 breast
  GI50: 10.6 µM
  TGI: 88.9 µM
PC-3 prostate
  GI50: 2.92 µM
  TGI: > 69.4 µM
T-47D breast
  GI50: 1.74 µM
  TGI: 7.2 µM
UACC-257 melanoma
  GI50: 11.4 µM
  TGI: > 72.4 µM
ACHN renal
  GI50: 5.49 µM
  TGI: > 100 µM
OVCAR-5 ovarian
  GI50: 19.4 µM
  TGI: > 100 µM
A498 renal
  GI50: 1.97 µM
  TGI: 19.6 µM
HT29 colon
  GI50: 4.74 µM
  TGI: > 95 µM
SF-268 CNS
  GI50: 7.14 µM
  TGI: > 100 µM
NCI/ADR-RES ovarian
  GI50: 5.41 µM
  TGI: > 70.4 µM
OVCAR-3 ovarian
  GI50: 5.93 µM
  TGI: 25.6 µM
SK-MEL-2 melanoma
  GI50: 5.38 µM
  TGI: > 45.6 µM
MDA-MB-231 breast
  GI50: 10.2 µM
  TGI: > 92 µM
HOP-92 NSCLC
  GI50: 5.18 µM
  TGI: 54.7 µM
MDA-MB-435
  GI50: 4.59 µM
  TGI: 36 µM
MOLT-4 leukemia
  GI50: 1.92 µM
  TGI: 8.35 µM
EKVX NSCLC
  GI50: 4.22 µM
  TGI: > 40.1 µM
NCI-H23 lung
  GI50: 11.1 µM
  TGI: > 100 µM
HL-60(TB) leukemia
  GI50: 6.15 µM
  TGI: 24.4 µM
SF-539 CNS
  GI50: 6 µM
  TGI: 25.5 µM
SK-MEL-28 melanoma
  GI50: 8.79 µM
  TGI: 74.4 µM
COLO 205 colon
  GI50: 1.82 µM
  TGI: 6.64 µM

Reference: PubChem BioAssay (NCI)
